{
  "source": "patent US9440941B2",
  "about": "“Substituted chroman-6-yloxy-cycloalkanes and their use as pharmaceuticals” (SANOFI, priority 2013, dated 2016)",
  "data": [
    {"biological_target": "T1, human NCX1 (Homo sapiens, UniProt P32418)", "T1 construct": "expressed in transfected cells", "experiment": "Inhibition of Ca2+ influx into cells (NCX1 reverse mode), FLIPR Fluo-4 assay", "type": "cell-based", "conditions": "inhibition of NCX1 in reverse mode (Ca2+ influx into cells); read-out: NCX1rv IC50", "method_in_brief": "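Ca2+ influx via reverse-mode exchange was evoked with gramicidin (20 µM final) after 45 min compound exposure at 16 °C in stably transfected CHO cells. Fluo-4 signal (520 nm) was followed on FLIPR at 2 s intervals. Max–min fluorescence gave percentage inhibition, from which IC50 was calculated.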", "units": {"IC50": "nM"}, "values": [
      {"smiles": "Cc1ccccc1C1CCc2cc(OC3CCC(NCc4c(C)nn(C)c4C)CC3)ccc2O1", "note": "(stereo not shown) [Example 177, 4-(2-o-Tolyl-chroman-6-yloxy)-N-(1,3,5-trimethylpyrazol-4-ylmethyl)-cyclohexylamine]", "IC50": 3200},
      {"smiles": "Cc1ccccc1[C@@H]1CCc2cc(O[C@H]3CC[C@H](C(=O)NCCO)CC3)ccc2O1", "note": "[Example 268, trans-4-((S)-2-o-tolyl-chroman-6-yloxy)-cyclohexanecarboxylic acid (2-hydroxy-ethyl)-amide]", "IC50": 150},
      {"smiles": "NCC(=O)N[C@H]1CC[C@H](Oc2ccc3c(c2)CC[C@@H](c2ccccc2)O3)CC1", "note": "[Example 159, 2-Amino-N-[trans-4-((S)-2-phenyl-chroman-6-yloxy)-cyclohexyl]-acetamide]", "IC50": 200},
      {"smiles": "Cc1ccccc1C1CCc2cc(OC3CCC(C(=O)NCc4ccno4)CC3)ccc2O1", "note": "(stereo not shown) [Example 158, N-(Isoxazol-5-ylmethyl)-4-(2-o-tolyl-chroman-6-yloxy)-cyclohexanecarboxamide]", "IC50": 400},
      {"smiles": "O=C(N[C@H]1CC[C@H](Oc2ccc3c(c2)CCC(c2ccccc2)O3)CC1)[C@@H]1CCCN1", "note": "(stereo partly drawn) [Example 180, (S)—N-[trans-4-(2-Phenyl-chroman-6-yloxy)-cyclohexyl]-pyrrolidine-2-carboxamide]", "IC50": 800},
      {"smiles": "Cc1ccccc1C1CCc2cc(O[C@H]3CC[C@H](N)CC3)ccc2O1.Cl", "note": "(stereo partly drawn) [Example 156, trans-4-(2-o-Tolyl-chroman-6-yloxy)-cyclohexylamine]", "IC50": 600},
      {"smiles": "Cc1ccccc1[C@@H]1CCc2cc(O[C@H]3CC[C@H](C(=O)NCCOP(=O)([O-])[O-])CC3)ccc2O1.[Na+].[Na+]", "note": "[Example 303, Phosphoric acid mono-(2-{[trans-4-((S)-2-o-tolyl-chroman-6-yloxy)-cyclohexanecarbonyl]-amino}-ethyl) ester disodium salt]", "IC50": 100}
    ]}
  ]
}
